Measured values taken from BindingDB's records for patent US12565504 (Biogen Ma, 2026).

Biological target: T1, Protein O-GlcNAcase (Homo sapiens, UniProt O60502)
T1 sequence (O60502 whole entry): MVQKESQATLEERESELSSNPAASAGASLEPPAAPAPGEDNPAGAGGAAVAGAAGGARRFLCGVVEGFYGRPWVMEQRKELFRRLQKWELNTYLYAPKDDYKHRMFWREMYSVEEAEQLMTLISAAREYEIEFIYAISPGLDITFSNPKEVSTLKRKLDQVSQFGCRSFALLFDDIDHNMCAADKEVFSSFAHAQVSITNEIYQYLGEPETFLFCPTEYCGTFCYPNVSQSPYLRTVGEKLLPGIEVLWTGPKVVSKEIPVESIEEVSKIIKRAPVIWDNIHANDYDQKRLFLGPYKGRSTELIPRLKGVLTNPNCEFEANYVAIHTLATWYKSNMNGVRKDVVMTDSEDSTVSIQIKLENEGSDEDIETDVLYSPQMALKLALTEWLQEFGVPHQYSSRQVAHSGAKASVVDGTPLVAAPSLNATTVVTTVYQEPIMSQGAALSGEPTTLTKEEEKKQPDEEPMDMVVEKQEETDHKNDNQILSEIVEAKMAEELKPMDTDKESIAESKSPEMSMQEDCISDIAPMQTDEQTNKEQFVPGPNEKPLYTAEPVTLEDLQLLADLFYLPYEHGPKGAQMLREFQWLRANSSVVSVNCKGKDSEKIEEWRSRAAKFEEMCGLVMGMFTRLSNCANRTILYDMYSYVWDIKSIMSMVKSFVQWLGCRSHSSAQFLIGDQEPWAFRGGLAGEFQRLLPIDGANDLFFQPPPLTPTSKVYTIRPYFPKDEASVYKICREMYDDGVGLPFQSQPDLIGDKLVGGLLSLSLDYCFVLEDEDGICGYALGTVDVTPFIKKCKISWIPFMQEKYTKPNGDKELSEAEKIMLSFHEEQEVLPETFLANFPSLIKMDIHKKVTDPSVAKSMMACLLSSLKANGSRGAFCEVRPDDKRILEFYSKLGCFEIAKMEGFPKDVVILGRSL
Test: OGA Enzyme Inhibition Biochemical Assay
Procedure: Recombinant full length human OGA enzyme was purchased from Origene. 4-MUGlcNAc substrate was purchased from Sigma. All other reagents were purchased from Sigma or Fisher. Assay buffer consists of the McIlvaine buffer system, pH 6.4 (0.2M Na2HPO4 mixed with 0.1M citric acid) and 0.01% BSA. […] Reactions were incubated for 90 minutes at room temperature and quenched with 40 μl of 3M glycine, pH 10 and read on a Perkin Elmer Envision plate reader (Ex: 355 nm/Em: 460 nm). Compounds were tested with a 10-point dose-response starting from 20 μM with a 4-fold dilution. Data was fit using GraphPad Prism using a 4-parameter fit with variable slope.

IC50 [µM]	SMILES
0.047	COc1cc2c(cn1)[C@@]1(C[C@H](C)N(Cc3sc(NC(C)=O)nc3F)C1)OC2 (single isomer, unassigned) [US12565504, Example 75-b]
0.01	COc1cc2c(cn1)[C@]1(C[C@H](C)N(Cc3sc(NC(C)=O)nc3F)C1)OC2 (single isomer, unassigned) [US12565504, Example 75-a]
0.01	CC(=O)Nc1nc(F)c(CN2CC3(C[C@@H]2C)OCc2ncccc23)s1 (some centres undefined) [US12565504, Example 79]
0.004	COc1nccc2c1COC21C[C@H](C)N(Cc2sc(NC(C)=O)nc2F)C1 (some centres undefined) [US12565504, Example 77]
